Results as given in patent publication US20220105192A1, “COMPOSITION, METHOD AND USE THEREOF” (RYBOQUIN COMPANY LTD, priority 2019, published 2022).

Key:
ITCH mRNA [1] = assay: ITCH mRNA knockdown by qPCR after LipofectAMINE 2000 transfection, Kelly cells; assay type: cell-based
Method: (§1) Transfection with LipofectAMINE 2000: one day before transfection, cells were plated at 8×10^4 cells per well for 24-well plate or 1.5×10^5 cells per well for 6-well plate in culture medium. On the day of transfection, LipofectAMINE 2000 (Thermal Fisher) or ITCH/Irrelevant siRNA (Eurogentec) was pre-diluted in OptiMEM (Thermal Fisher) with various concentrations and mixed to form complexes at room temperature (RT) for 25 min before adding to cells. mRNAs or protein lysates were collected 72 hours after transfection for further analysis.
(§2) Real-time PCR: cDNA from each mRNA sample was synthesized using superscript III first strand synthesis kit (Thermal Fisher). To determine the ITCH expression, real time PCR was performed using SYBR-green qPCR kit (Eurogentec), using beta-actin or SDHA (sequence details as above) as endogenous control. The qPCR was run using either StepOne plus qPCR machine (Thermal Fisher) or CFX96 qPCR system (Bio-Rad). Results were analysed using their corresponding software.
(§3) To determine ITCH silencing in neuroblastoma cells in vitro, neuroblastoma cells were transfected with ITCH siRNA, using LipofectAMINE 2000 as the transfection reagent. Cells were transfected with either, a) ITCH siRNA (6.25 nM to 100 nM) using 2 μl/well LipofectAMINE 2000 or b) Different amounts of LipofectAMINE2000 (0.5 μl/well, 1 μl/well and 2 μl/well) with 100 nM ITCH siRNA for 4 hours in OptiMEM, and then change into complete medium for a further 72 hours.
(§4) The ITCH mRNA levels were determined by qPCR, and cells transfected with irrelevant siRNA were used as the control.

ITCH mRNA [2] = assay: ITCH mRNA knockdown by qPCR after LipofectAMINE 2000 transfection, BE2 cells; assay type: cell-based
Method: as §1, §2, §3, §4

Itch protein [3] = assay: Western blot of Itch protein after siRNA transfection, Kelly cells; assay type: cell-based
Method: as §1
[…] 100 μl of lysis buffer was added to each well of the 6-well plate, and left on ice for 10 minutes. Samples were collected and boiled for 3 minutes and then centrifuged at 14,000 g for 10 minutes at 4° C. The supernatants were stored at −80° C. until needed. 30 μl/well of each sample were loaded onto NuPAGE Novex 10% bis-Tris Gel, and run at a constant voltage of 150V for 1 hour, before being transferred to a nitrocellulose membrane at 300 mA for 2 hours. The membrane was then blocked with Odyssey block solution (LI-COR Biosciences) for 60 min, incubated by primary antibodies of mouse anti-ITCH antibody (1:2000, BD) or rabbit anti-TP73 (1:1000, Generon), and mouse anti-beta actin (1:5000, Sigma) overnight at 4° C. […]

Itch protein [4] = assay: Western blot of Itch protein after siRNA transfection, BE2 cells; assay type: cell-based; conditions: 72 hours after transfection, in comparison to irrelevant siRNA treated cells
Method: as §1
Western blot: 72 hours after transfection, protein was extracted in RIPA (Radio-Immunoprecipitation Assay) lysis buffer (Sigma) containing a complete protease inhibitor cocktail (1:100, Roche). 100 μl of lysis buffer was added to each well of the 6-well plate, and left on ice for 10 minutes. Samples were collected and boiled for 3 minutes and then centrifuged at 14,000 g for 10 minutes at 4° C. The supernatants were stored at −80° C. until needed. 30 μl/well of each sample were loaded onto NuPAGE Novex 10% bis-Tris Gel, and run at a constant voltage of 150V for 1 hour, before being transferred to a nitrocellulose membrane at 300 mA for 2 hours. […]

TP73 = assay: Western blot of TP73 after ITCH siRNA transfection, Kelly cells; assay type: cell-based; conditions: LipofectAMINE2000, samples at 1, 2, 3, 6 days and D6+3, western blot normalized to β-actin
Method: […] 100 μl of lysis buffer was added to each well of the 6-well plate, and left on ice for 10 minutes. Samples were collected and boiled for 3 minutes and then centrifuged at 14,000 g for 10 minutes at 4° C. The supernatants were stored at −80° C. until needed. 30 μl/well of each sample were loaded onto NuPAGE Novex 10% bis-Tris Gel, and run at a constant voltage of 150V for 1 hour, before being transferred to a nitrocellulose membrane at 300 mA for 2 hours. The membrane was then blocked with Odyssey block solution (LI-COR Biosciences) for 60 min, incubated by primary antibodies of mouse anti-ITCH antibody (1:2000, BD) or rabbit anti-TP73 (1:1000, Generon), and mouse anti-beta actin (1:5000, Sigma) overnight at 4° C. After washing with PBS (phosphate-buffered saline) containing 1% Tween 20 (PBST) for 15 min×3 times at room temperature, the membrane was then incubated with IRDye 680 RD goat anti-rabbit and IRDye 800 CW goat anti-mouse 2nd antibodies (1:15000, LI-COR Biosciences) for 1 hour at RT. The image of the blotted membrane was acquired by Odyssey Clx infrared imaging system (LI-COR Biosciences) using image studio software.
Kelly cells were transfected with ITCH siRNA or irrelevant siRNA in 6-well plates using LipofectAMINE2000. The protein samples were collected 1 day, 2 days, 3 days and 6 days after transfection. […]

Kelly cells = assay: SubG1 analysis (apoptosis) of transfected Kelly cells after 4 Gy irradiation; assay type: cell-based; conditions: 4 Gy irradiation three days after transfection, analysed one day after irradiation
Method: SubG1 analysis: to examine the effects of ITCH silencing on the apoptosis of neuroblastoma cells upon irradiation, Kelly cells were firstly transfected with ITCH siRNA as described above, using irrelevant siRNA as control. Cells were exposed to 4 Gy irradiation three days after transfection. 24 hours after irradiation, cells were trypsinized and centrifuged at 2000 rpm, for 5 min. Pre-cold 70% ethanol was then added dropwise to cell pellet, and the cells were fixed at 4° C. for 30 min before centrifuge again and the cell pellet washed with citric buffer twice before adding 50 μl RNase followed by 50 μg/ml PI (propidium iodide) for 5 min. The cells were then pelleted again at 2000 rpm for 5 min, and re-suspended in 0.5 ml PBS for FACS (fluorescent associated cell sorting) analysis. The cell cycle profile was acquired using FACS calibur machine and the percentage of cells in the SubG1 region was calculated using Flowjo software.
Kelly cells were transfected with ITCH and irrelevant siRNA, respectively. Three days later, cells were subjected to 4 Gy irradiation. The subG1 population was analysed one day after the irradiation. […] This difference was statistically significant between the 2 groups (p<0.001, Mann-Whitney test).

ITCH mRNA [5] = assay: In vivo silencing of ITCH in neuroblastoma (Kelly) xenograft tumours, real time RT-PCR; parameters: species or system mouse; conditions: for Differences in % (ITCH SiRNA vs Irre SiRNA), relative ITCH expression <0.8 / Differences in % (ITCH SiRNA vs Irre SiRNA), relative ITCH expression <1 / % of samples with relative ITCH expression <0.8 / % of samples with relative ITCH expression <1 / Number of samples with relative ITCH expression <0.8 / Number of samples with relative ITCH expression <1: 24 h after injection; for % of samples with relative ITCH expression <0.8 / % of samples with relative ITCH expression <1 / Number of samples with relative ITCH expression <0.8 / Number of samples with relative ITCH expression <1: n number 24; for more samples expressing lower level of ITCH (relative expression <0.8) in treated group than in control group: 48 h after delivery; for ITCH silencing: 48 hours after delivery, vs irrelevant siRNA group; for Relative expression of ITCH/SDHA (mean ± SEM) / Relative expression of ITCH/β-actin (mean ± SEM): xenograft tumours
Method: Establishment of the xenograft neuroblastoma model and in vivo transfection of ITCH siRNA with nanoparticles: 6-8 week old NSG-SCID female mice were ordered from Charles River laboratories. All procedures were approved by UCL animal care policies and were carried out under Home Office Licenses issued in accordance with the United Kingdom Animals (Scientific Procedures) Act 1986 (UK). The mice were acclimatized for 1-2 weeks before engrafting the neuroblastoma cells. On the day of injection, Kelly cells were trypsinized and re-suspended in medium at a density of 3×10^6 cells/100 μl. 100 μl cell suspension was mixed with equal volume of Matrigel (BD biosciences) on ice and immediately injected subcutaneously into the left or right upper thigh of the mouse. The body weight and the tumour size/volume of each mouse were monitored from D4 after engraftment. The in vivo administration of the ITCH siRNA nanoparticles was performed on mouse once its tumour grew bigger than 5mm at both dimensions. The nanoparticle formulation for in vivo study was also prepared at the 1:4:1 ratio, using cationic lipid AT-1, which contains 1% PEG and the peptide used was ME27. 1 mg siRNA/kg of nanoparticles was injected intravenously into each mouse. The tumour was harvested either 24 hours or 48 hours after administration, and processed for qPCR analysis.
Real time RT-PCR analysis of tumour samples: each tumour was divided into 4 parts and mRNA was extracted respectively for real time RT-PCR analysis. iTaq Universal SYBR Green One-Step Kit was used in this assay. For normalization, 2 separate housekeeping genes, beta-actin and SDHA (Fisher M, 2005) were included. As there were in total 104 samples to test, it was not possible to fit all samples in a single 96 well testing plate. Therefore, sample 05 c was chosen, from an untreated tumour sample as a common control. This sample was included in every plate that was run and all the data from each plate were calculated relative to this sample (the ddCT value of each sample was calculated by subtracting the deICT value of sample 05 c).

[6] = 6.25 nM siRNA, 2 μl/well LipofectAMINE 2000, qPCR, control irrelevant siRNA
[7] = 12.5 nM siRNA, 2 μl/well LipofectAMINE 2000, qPCR, control irrelevant siRNA
[8] = 25 nM siRNA, 2 μl/well LipofectAMINE 2000, qPCR, control irrelevant siRNA
[9] = 50 nM siRNA, 2 μl/well LipofectAMINE 2000, qPCR, control irrelevant siRNA
[10] = 100 nM siRNA, 2 μl/well LipofectAMINE 2000, qPCR, control irrelevant siRNA
[11] = 24 hours after i.v. 1 mg siRNA/kg nanoparticles (AT-1, ME27)
[12] = 48 hours after i.v. 1 mg siRNA/kg nanoparticles (AT-1, ME27)

ITCH siRNA: siRNA, sense strand 5′-GCUGUUGUUUGCCAUAGAA55-3′ (SEQ ID NO 003), antisense strand 5′-UUCUAUGGCAAACAACAGC55-3′ (SEQ ID NO 004) (Eurogentec) (listed as RNA, chemistry not given here)
ITCH knockdown (ITCH mRNA [1]; [6]): 64.7% | ITCH knockdown (ITCH mRNA [1]; [7]): 77.8% | ITCH knockdown (ITCH mRNA [1]; [8]): 73.5% | ITCH knockdown (ITCH mRNA [1]; [9]): 89% | ITCH knockdown (ITCH mRNA [1]; 100nM SiRNA, 0.5 μl/well LipofectAMINE 2000): 85% | ITCH knockdown (ITCH mRNA [1]; 100nM SiRNA, 1 μl/well LipofectAMINE 2000): 83% | ITCH knockdown (ITCH mRNA [1]; 100nM SiRNA, 2 μl/well LipofectAMINE 2000 (LipofectAMINE amount series)): 78.8% | ITCH knockdown (ITCH mRNA [1]; [10]): 78% | ITCH knockdown (ITCH mRNA [2]; [6]): -39% | ITCH knockdown (ITCH mRNA [2]; [7]): 54% | ITCH knockdown (ITCH mRNA [2]; [8]): 48.7% | ITCH knockdown (ITCH mRNA [2]; [9]): 71.8% | ITCH knockdown (ITCH mRNA [2]; 100 nM siRNA, 0.5 μl/well LipofectAMINE 2000): 88.7% | ITCH knockdown (ITCH mRNA [2]; 100 nM siRNA, 1 μl/well LipofectAMINE 2000): 49% | ITCH knockdown (ITCH mRNA [2]; 100 nM siRNA, 2 μl/well LipofectAMINE 2000 (LipofectAMINE amount series)): 34% | ITCH knockdown (ITCH mRNA [2]; [10]): 38.2% | remaining Itch protein level (Itch protein [3]; 72 hours after transfection, western blot, in comparison to non-transfected cells): 31.6% | Itch protein level, time course (Itch protein [3]; LipofectAMINE2000, 1 day to 6 days after the 1st transfection, vs irrelevant siRNA, normalized to β-actin): downregulation of Itch protein was observed | changes in Itch protein level (Itch protein [4]): no changes | TP73 protein level, time course (TP73): upregulation was only detected at day 3 samples and day 6 samples which had been transfected twice | percentage of SubG1 (apoptotic) cells (Kelly cells): 8.36% | Differences in % (ITCH SiRNA vs Irre SiRNA), relative ITCH expression <0.8 (ITCH mRNA [5]; normalized to SDHA): 12.5% | Differences in % (ITCH SiRNA vs Irre SiRNA), relative ITCH expression <1 (ITCH mRNA [5]; normalized to SDHA): 4.17% | % of samples with relative ITCH expression <0.8 (ITCH mRNA [5]; normalized to SDHA): 25% | % of samples with relative ITCH expression <1 (ITCH mRNA [5]; normalized to SDHA): 41.67% | Number of samples with relative ITCH expression <0.8 (ITCH mRNA [5]; normalized to SDHA): 6 | Number of samples with relative ITCH expression <1 (ITCH mRNA [5]; normalized to SDHA): 10 | Differences in % (ITCH SiRNA vs Irre SiRNA), relative ITCH expression <0.8 (ITCH mRNA [5]; normalized to β-actin): −16.67% | Differences in % (ITCH SiRNA vs Irre SiRNA), relative ITCH expression <1 (ITCH mRNA [5]; normalized to β-actin): 8.33% | % of samples with relative ITCH expression <0.8 (ITCH mRNA [5]; normalized to β-actin): 16.67% | % of samples with relative ITCH expression <1 (ITCH mRNA [5]; normalized to β-actin): 45.83% | Number of samples with relative ITCH expression <0.8 (ITCH mRNA [5]; normalized to β-actin): 4 | Number of samples with relative ITCH expression <1 (ITCH mRNA [5]; normalized to β-actin): 11 | more samples expressing lower level of ITCH (relative expression <0.8) in treated group than in control group (ITCH mRNA [5]; normalized to SDHA): 35% | more samples expressing lower level of ITCH (relative expression <0.8) in treated group than in control group (ITCH mRNA [5]; normalized to β-actin): 27.14% | ITCH silencing (ITCH mRNA [5]; normalized to SDHA): 14.6% | ITCH silencing (ITCH mRNA [5]; normalized to β-actin): 19.15% | ITCH silencing (summary) (ITCH mRNA [5]; neuroblastoma xenograft model, nanoparticles, 48 hours after transfection): 15-20% | Relative expression of ITCH/SDHA (mean ± SEM) (ITCH mRNA [5]; [11]): 1.18 ± 0.10 | Relative expression of ITCH/β-actin (mean ± SEM) (ITCH mRNA [5]; [11]): 1.05 ± 0.06 | Relative expression of ITCH/SDHA (mean ± SEM) (ITCH mRNA [5]; [12]): 0.82 ± 0.05 | Relative expression of ITCH/β-actin (mean ± SEM) (ITCH mRNA [5]; [12]): 0.76 ± 0.05
